Source: paper PMC8129988 (Inorganic Chemistry Frontiers, 2021)

How the values were obtained:
[1] = system: FGFR3-driven UM-UC-14 xenografts; assay: UM-UC-14 xenograft experiment; type: in vivo, C.B.17/SCID mice; details: 10 mg kg^-1 i.p., three times a week for two weeks
Experimental: (§1) Based on this promising in vitro data, the antitumor activity of our novel cobalt(III) complexes Co(acac)2LPon and Co(Meacac)2LPon was evaluated in xenograft mouse models. As a first in vivo experiment, BCR-ABL-driven K-562 cells were injected subcutaneously (s.c.) and treated intraperitoneally (i.p.) with the test compounds at 10 mg kg^−1 or the respective amount of solvent three times a week, for two weeks. Treatment with our novel derivatives was well tolerated and even after repeated i.p. applications no substantial body weight loss was observed (Fig. S13A ^†). […] Consequently, anticancer activity of Co(acac)2LPon was also investigated against FGFR3-driven UM-UC-14 xenografts using the identical treatment regime.
(§2) Fig. 11 In vivo anticancer activity of the investigated cobalt(III) complexes. […] Tumor sizes were evaluated by caliper measurement. […] Statistical significance was calculated by two-way ANOVA with Sidak multiple comparison test with p < 0.05(*); <0.01 (**).
(§3) Eight-to nine-week-old male C.B.17/SCID mice were bread in-house (originally Harlan) and were kept in pathogen-free conditions and controlled environment with 12 h light–dark cycle. […] Tumor growth was evaluated by daily recording of tumor size by caliper measurement. […]

[2] = system: BCR-ABL-driven K-562 xenografts; assay: K-562 xenograft experiment; type: in vivo, C.B.17/SCID mice; details: 10 mg kg^-1 i.p., three times a week for two weeks
Experimental: as §1, §2, §3

[3] = serum stability in fetal calf serum (HPLC-MS); type: in vitro ADME; details: 37 °C
Experimental: Therefore, we only investigated the stability of the novel complexes in fetal calf serum (FCS). As reference again Co(acac)2LEGFR[26] was included. The complexes were dissolved in 50 mM phosphate puffer and mixed 1 : 10 with fetal calf serum (FCS; buffered with 150 mM phosphate buffer to keep a stable pH of 7.4) to a final concentration of 50 μM. The samples were incubated at 37 °C and after 0, 2, 4, 6, 24 and 26 h extracted with acetonitrile and measured by HPLC-MS. […] This indeed confirms, that by avoiding the direct attachment of the ethylenediamine moiety to an aromatic ring system, complexes with much higher stability can be generated. Since no distinct difference in stability between Co(acac)2LPon and Co(Meacac)2LPon within 26 h could be observed, measurements were repeated up to 72 h.
For serum stability measurements, 135 μL FCS, buffered with 150 mM phosphate (Na2HPO4/NaH2PO4) to maintain a pH value of 7.4, were mixed with 15 μL of a 500 μM stock solution of the respective complex in 50 mM phosphate buffer to reach a final concentration of 50 μM. The samples were incubated at 37 °C. At different time points to 20 μL serum 40 μL of ACN were added. After vigorously shaking for 2 min the suspension was centrifuged at 6000 rpm for 10 min. The supernatant was taken with a syringe and directly measured via HPLC-MS. The samples were analyzed on an Agilent 1260 Infinity system using a Waters Atlantis T3 column (150 mm × 4.6 mm) coupled to a Bruker Amazon SL ESI-IT mass spectrometer. Water and acetonitrile (both containing 0.1% formic acid) were used as eluents with a gradient of 1–99% acetonitrile within 29 min.

## CC(=O)C=C(C)[O-].CC(=O)C=C(C)[O-].Cc1ccc(C(=O)Nc2ccc(CNCCN)c(C(F)(F)F)c2)cc1C#Cc1cnc2cccnn12.O=C(O)C(F)(F)F.[Co+3] [Co(acac)2LPon, Bis(2,4-pentanedionato)N-(4-(((2-aminoethyl)amino)methyl)-3-(trifluoromethyl)phenyl)-3-(imidazo[1,2-b]pyridazin-3-ylethynyl)-4-methylbenzamide cobalt(III) 2,2,2-trifluoroacetate]
[1]
  body weight: without significant impact on body weight
  tumor volumes vs control: significant reduction of tumor volumes
[2]
  tumor growth vs solvent controls: significantly reduced tumor growth
[3]; 26 h, pH 7.4, 50 μM
  intact complex remaining in FCS: ~90%
[3]; 72 h, pH 7.4
  intact compound remaining in FCS: ~70%
